How the values were obtained:
Alloxan diabetic mice [1] = experiment: Acute study of Cocoa Flavanoid, blood sugar level in Alloxan diabetic mice; format: in vivo, Swiss Albino mice (male); conditions: Glyburide 10 mg/kg; for Summary in percentage (Blood sugar level): reduction versus Normal
Method: Swiss Albino mice (male) in the weight range 25 to 30 grams were studied for acute affect. They were made diabetic by the admnistration of Alloxan (with admnistration of 70 mg/kg Alloxan and in 48 hours the animals develop diabetes). As the mice became diabetic and the blood sugar was above […], they were grouped into […] of six each. Each group was administered by the test drug at 25 mg/kg, 50 mg/kg 100 mg/kg and 250 mg/kg body weight. One group was administered a positive control drug glyburide at 10 mg/kg of body weight. Blood samples were drawn at 2 hour, 4 hour, 6 hour and 24 hour intervals for all mice. The blood sugar pattern is studied. It has been found out that the best results are obtained for a dose of 50 mg/kg body weight at 2 hours after administration and it increases up to the 6th hour. Good result is obtained for 100 mg/kg drug. […] The effect of 50 mg/kg compared very well with the effect of positive control drug glyburide at 10 mg/kg body weight.
This is an interesting finding that the hypoglycemic effect is best for a dose ranging between 50 mg to 100 mg/kg of body weight.

Alloxan diabetic mice [2] = experiment: Sub acute study (28 days) of Cocoa Flavanoid, blood sugar level in Alloxan diabetic mice; format: in vivo, Swiss Albino mice (Male); conditions: Glyburide 10 mg/kg; for Summary in percentage (Blood sugar level): reduction versus Normal
Method: Swiss Albino mice (Male) in the weight range of 25 to 30 gram were studied for sub acute effect for 28 days. The mice were made diabetic by admnistration of Alloxan. As the mice became diabetic and the blood sugar was above […] they were chosen for the study. 4 groups were made. One group was given 50 mg/kg, 2nd group 100 mg/kg, 3rd group 250 mg/kg and the 4th group positive control glyburide at 10 mg/kg. Treatment was given for 28 days.
A very interesting observation was made that the best effect was produced by the dose of 100 mg/kg body weight. The effect started by 7th day and increased up to 28th day. […] Unlike acute study, the sub acute study has confirmed that 100 mg/kg given the most optimal blood sugar reduction. This effect was sustained after the removal of treatment on 35th day.

COc1ccc(Cl)cc1C(=O)NCCc1ccc(S(=O)(=O)NC(=O)NC2CCCCC2)cc1 [Glyburide]
Blood sugar level (reading) (Alloxan diabetic mice [1]; 2 hour): 317.50 | Summary in percentage (Blood sugar level) (Alloxan diabetic mice [1]; 2 hour): 15% | Blood sugar level (reading) (Alloxan diabetic mice [1]; 4 hour): 266.16 | Summary in percentage (Blood sugar level) (Alloxan diabetic mice [1]; 4 hour): 29% | Blood sugar level (reading) (Alloxan diabetic mice [1]; 6 hour): 149.50 | Summary in percentage (Blood sugar level) (Alloxan diabetic mice [1]; 6 hour): 60% | Blood sugar level (reading) (Alloxan diabetic mice [1]; 24 hour): 228.66 | Summary in percentage (Blood sugar level) (Alloxan diabetic mice [1]; 24 hour): 39% | Blood sugar level (reading) (Alloxan diabetic mice [1]; Normal (before administration)): 374.33 | Blood sugar level (reading) (Alloxan diabetic mice [2]; Normal (before treatment)): 396.09 | Blood sugar level (reading) (Alloxan diabetic mice [2]; day 7): 323.46 | Summary in percentage (Blood sugar level) (Alloxan diabetic mice [2]; day 7): 18% | Blood sugar level (reading) (Alloxan diabetic mice [2]; day 14): 265.46 | Summary in percentage (Blood sugar level) (Alloxan diabetic mice [2]; day 14): 33% | Blood sugar level (reading) (Alloxan diabetic mice [2]; day 21): 170.82 | Summary in percentage (Blood sugar level) (Alloxan diabetic mice [2]; day 21): 57% | Blood sugar level (reading) (Alloxan diabetic mice [2]; day 28): 137.90 | Summary in percentage (Blood sugar level) (Alloxan diabetic mice [2]; day 28): 65%
